Kd data for five compounds are collected here from BindingDB's records for doi:10.1021/acs.biochem.6b01020 (University of Delaware, 2017).

Square brackets hold non-standard residues; d marks the D form. Peptide text beside a SMILES is read from it. * marks the point of attachment. C(CF3)3 = FC(F)(F)C(C(F)(F)F)(C(F)(F)F)*; Hyp = O=C(O)[C@@H]1C[C@@H](O)CN1; hSer = N[C@@H](CCO)C(=O)O

The test deals with T1, Estradiol-bound Estrogen receptor [255-595] (Homo sapiens, UniProt P03372).
T1 construct: 255-595
T1 sequence (P03372 whole entry): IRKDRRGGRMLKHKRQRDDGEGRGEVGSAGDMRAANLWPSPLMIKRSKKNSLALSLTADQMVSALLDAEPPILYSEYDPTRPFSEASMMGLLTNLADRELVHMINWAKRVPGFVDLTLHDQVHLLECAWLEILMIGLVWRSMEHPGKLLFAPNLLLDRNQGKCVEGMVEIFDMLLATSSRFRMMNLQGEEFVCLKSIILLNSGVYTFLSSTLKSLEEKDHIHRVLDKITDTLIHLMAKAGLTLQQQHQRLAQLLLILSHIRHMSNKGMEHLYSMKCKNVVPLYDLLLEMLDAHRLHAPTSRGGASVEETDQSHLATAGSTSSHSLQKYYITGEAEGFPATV
The experiment in a line: Fluorescence Polarization Assay. The settings on record: pH 7.4; 25 °C. On the procedure: Peptide concentrations were determined by the absorbance at 492 nm, using a fluorescein extinction coefficient of 83000. Fluorescence polarization assays were conducted in 96-well round-bottom black opaque plates (Costar) using 2-fold serial dilutions of the ERα LBD, to final protein concentrations from 10 to 0.0098 μM, in PBS containing 0.1 mM DTT, 20 μM 17β-estradiol, 0.04 mg/mL BSA, and 100 nM fluorescein-labeled peptide. Solutions were incubated in the dark for 30 min at room temperature before being read on a PerkinElmer Fusion plate reader using a 485 nm fluorescein excitation filter and a 535 nm emission filter with a polarizer.
In general terms: Fluorescence polarisation rises when a labelled molecule tumbles more slowly, as on binding a larger partner.
As for `CC[C@H](C)[C@H](NC(=O)[C@H](CCCCN)NC(=O)[C@H](Cc1cnc[nH]1)NC(=O)[C@H](CCCNC(=N)N)NC(=O)[C@H](CCC(=O)O)NC(=O)[C@@H](NC(=O)[C@H](CC(C)C)NC(=O)[C@@H](N)CS)[C@@H](C)O)C(=O)N[C@H](CCOC(C(F)(F)F)(C(F)(F)F)C(F)(F)F)C(=O)N[C@@H](Cc1cnc[nH]1)C(=O)N[C@@H](CCCNC(=N)N)C(=O)N[C@@H](CC(C)C)C(=O)N[C@@H](CC(C)C)C(=O)N[C@@H](CCC(N)=O)C(=O)N[C@@H](CCC(=O)O)C(=O)O`, the Kd – broadly, a measure of binding affinity in units of concentration – is 43 µM. This counts as double-digit micromolar.
Compound `CC[C@H](C)[C@H](NC(=O)[C@H](CCCCN)NC(=O)[C@H](Cc1cnc[nH]1)NC(=O)[C@H](CCCNC(=N)N)NC(=O)[C@H](CCC(=O)O)NC(=O)[C@@H](NC(=O)[C@H](CC(C)C)NC(=O)[C@@H](N)CS)[C@@H](C)O)C(=O)N[C@@H](CC(C)C)C(=O)N[C@@H](Cc1cnc[nH]1)C(=O)N[C@@H](CCCNC(=N)N)C(=O)N[C@@H](CCOC(C(F)(F)F)(C(F)(F)F)C(F)(F)F)C(=O)N[C@@H](CC(C)C)C(=O)N[C@@H](CCC(N)=O)C(=O)N[C@@H](CCC(=O)O)C(=O)O` (H-CLTERHKILHR[hSer](C(CF3)3)LQE-OH) gave a Kd of 2.2 µM.
As for `CC[C@H](C)[C@H](NC(=O)[C@H](CCCCN)NC(=O)[C@H](Cc1cnc[nH]1)NC(=O)[C@H](CCCNC(=N)N)NC(=O)[C@H](CCC(=O)O)NC(=O)[C@@H](NC(=O)[C@H](CC(C)C)NC(=O)[C@@H](N)CS)[C@@H](C)O)C(=O)N1C[C@H](OC(C(F)(F)F)(C(F)(F)F)C(F)(F)F)C[C@H]1C(=O)N[C@@H](Cc1cnc[nH]1)C(=O)N[C@@H](CCCNC(=N)N)C(=O)N[C@@H](CC(C)C)C(=O)N[C@@H](CC(C)C)C(=O)N[C@@H](CCC(N)=O)C(=O)N[C@@H](CCC(=O)O)C(=O)O` (H-CLTERHKI[Hyp](C(CF3)3)HRLLQE-OH), the figure is above 150 µM.
The result for `CC(C)C[C@H](NC(=O)[C@H](CC(C)C)NC(=O)[C@H](CCCNC(=N)N)NC(=O)[C@H](Cc1cnc[nH]1)NC(=O)[C@H](CC(C)C)NC(=O)[C@H](CCOC(C(F)(F)F)(C(F)(F)F)C(F)(F)F)NC(=O)[C@H](CCCCN)NC(=O)[C@H](Cc1cnc[nH]1)NC(=O)[C@H](CCCNC(=N)N)NC(=O)[C@H](CCC(=O)O)NC(=O)[C@@H](NC(=O)[C@H](CC(C)C)NC(=O)[C@@H](N)CS)[C@@H](C)O)C(=O)N[C@@H](CCC(N)=O)C(=O)N[C@@H](CCC(=O)O)C(=O)O` [CLTERHK(Hse(C4F9))LHRLLQE] (H-CLTERHK[hSer](C(CF3)3)LHRLLQE-OH) reads 7.1 µM.
As for H-CLTERHKILHRLLQE-OH, the figure is 1 µM.
